The record followed here is paper PMC10994559 (PLOS Neglected Tropical Diseases, 2024).

This assay has as its system E. histolytica. In words: E. histolytica viability, ATP luminescence (Cell titer glo). The class given is cell-based, Entamoeba histolytica. As to conditions: Entamoeba histolytica, 48 h. As for the experimental part: Entamoeba histolytica (strain B2-5) was passaged in TY-1 medium (Trypticase peptone BBL, Yeast extract BBL, glucose, NaCl, K2HPO4, KH2PO4, cysteine, ascorbic acid, ammonium iron citrate, adult bovine serum, Diamond tween 80, penicillin G, amikacin (pH:6.8)) and kept in 37°C incubator in completely filled tubes with closed lid.
Viability of E. histolytica was assayed via a luminescence assay based on ATP quantification in the live cells. Briefly, 2.5x10^4 cell/ml were exposed to 25 μM of compounds in 96 well plates (non-transparent, tissue culture treated, flat bottom; SPL Life Sciences) in triplicate for 48h. Plates were incubated in sealed anaerobic bags (Oxoid AGS) together with an Anaerogen compact bag (Thermo Scientific) and anaerobic indicator (Thermo Scientific) at 37°C. Then, Cell titer glo reagent (Promega) was added to the reaction (1:5) according to manufacturers’ instruction. After 15 min of orbital shaking, followed by 10 min incubation at RT, ATP-bioluminescence was quantified at RT using a Synergy H1 plate reader (Synergy H1, BioTek). Metronidazole was included as control drug in all the assays for E. histolytica. Test compounds indicating significant growth reduction in the primary screen were subjected to potency determination. These secondary screens were essentially carried out as detailed above, but with a 9 to 16-point concentration range of the test compounds spanning 0.01–100 μM.

Each structure is given as a SMILES string.

As a reminder, the viability is a read-out of living cells in per cent, often relative to untreated cells. One may read the EC50 as the concentration at which the effect is half-maximal.

Turning to `Cc1ncc([N+](=O)[O-])n1CCO` [Metronidazole, reference compound], the viability at 2.5 µM (read-out: Residual viability, E.histolytica (2.5 µM)) amounted to 71.6 ± 32.3%. Moreover, the viability at 25 µM (read-out: Residual viability, E.histolytica (25 µM)) was -7.82 ± 3.48%. For the same molecule, the EC50 (9 to 16-point dose response) amounted to 2900 ± 1800 nM.
